This passage reports GI50 and TGI results from PubChem BioAssay (NCI).

Each structure is given as a SMILES string. “And” between values parts separate entries of the source, which are not always exact repeats. Identical values can stand only once.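 1) Cells in 96-well plates. 2) Compound, 48 h, 5 concentrations. 3) Linear interpolation between surrounding doses. 4) Unreached endpoint = highest concentration. GI50: concentration for 50% inhibition of growth. TGI is the concentration that stops growth completely.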

The first assay concerns SW-620 colon. The assay can be described thus: NCI-60 cell line screen, 48 h.
Consider `CC(C)CC(=O)[O-].CC(C)CC(=O)[O-].N.N.N.N.[Co+3].[O-][Cl+3]([O-])([O-])[O-]`, for which the GI50 was more than 100 µM and the TGI was more than 100 µM.
Take `COc1cc(C2c3cc4c(cc3C(NCC(O)CO)C3COC(=O)[C@H]23)OCO4)cc(OC)c1OC` (stereo partly drawn): the TGI was more than 100 µM.
Regarding `CC[CH2][Pb]([CH2]CC)([CH2]CC)[O]C(=O)C(F)(F)F`, the GI50 is 0.0786 µM and the TGI came to 0.253 µM.
The molecule `COC(=O)CC(=O)C[P+](c1ccccc1)(c1ccccc1)c1ccccc1` yielded a TGI of more than 218 µM.
Molecule `CCCCN(CCCC)C(=O)C(=O)C(C#N)c1ccc(C)cc1` (stereo not drawn) had a TGI of more than 100 µM.
On the same count and under the same terms, the value for `Cc1ccc(S(=O)(=O)C(CC(=O)N2CCCC2)C(=O)c2ccccc2)cc1` (stereo not drawn) was more than 100 µM; that for `CC1(C)CC(/C=C2/OC(=O)c3ccccc32)=C(C#N)C(=O)O1` was more than 100 µM.
Same read-out and setting: the value for `Cc1nc2c(nc1Cl)nc(Oc1ccc(Cl)cc1)c1ccccc12` was more than 100 µM; that for `CC(=O)Nc1ccccc1Sc1ccccc1` was more than 100 µM.
Molecule `COC(=O)C[C@H]1CCC2(OCCO2)[C@]1(C)C(=O)OC` yielded a TGI of more than 100 µM.
Regarding `O=C(CN1CCOCC1)Nc1ccc(Cn2nnc3c2C(=O)c2nnn(Cc4ccc(NC(=O)CN5CCOCC5)cc4)c2C3=O)cc1`, the GI50 was 0.366 µM and the TGI stood at 1.75 µM.
`CCCCCCCCCC[C@@H](O)[C@@H]1CC[C@H]([C@H]2CC[C@@H]([C@@H](O)CCCCCCCCCC[C@H]3CC(CC(C)=O)C(=O)O3)O2)O1` (stereo partly drawn): the TGI amounted to 38 µM.
The molecule `CCOc1ccc2c(c1)[n+]([O-])c(S(=O)(=O)c1ccc(C)cc1)c(N)[n+]2[O-]` displayed a TGI of more than 100 µM.
The same measure, in the same setting: the value for `CC12CC[C@@H](C(C)(C)O)C1[C@@H](O)CC1(C)C2CCC2[C@@]3(C)CC[C@H](O)C(C)(C)C3C(O)C[C@]21C` (stereo partly drawn) was 39 µM.
In the case of `CCOC(=O)NC(=O)c1cn(C2OC(COC(=O)CCCCCCCCC(=O)OCC3OC(n4cc(C(=O)NC(=O)OCC)c(=O)[nH]c4=O)C(O)C3O)C(O)C2O)c(=O)[nH]c1=O` (stereo not drawn), the TGI is more than 100 µM.
For `Cc1ccc(C)c(NC(=O)CC/C(=N\NC(=O)C(=O)NN)C(C)C(=O)c2ccc(O)cc2)c1` (stereo not drawn), the TGI is more than 100 µM.
In turn, `N=C1CSC2=NC3=C(CCC/C3=C\c3ccccc3)C(c3ccccc3)N12` (stereo not drawn) showed a TGI of 15.2 µM.
`COc1ccc(CNc2cc(OC)c(OC)c(OC)c2)cc1`: the TGI is more than 100 µM.
Still for that read-out and setting: the value for `COc1ccccc1C1C(C(=O)Nc2ccccc2)=C(C)NC(C)=C1C(=O)Nc1ccccc1` was more than 100 µM.
Still for that read-out and setting: in the case of `OCc1ccc2[n+](c1)CCC1c3ccccc3NC21` (stereo not drawn) it was more than 300 µM.
With `COc1cccc(-c2cc(=O)c3cc(N(C)C)ccc3[nH]2)c1`, the GI50 is 0.0173 µM and 0.00382 µM; the TGI is more than 100 µM.
`CCCCCCCCCCCC(=O)CC(=O)c1c(O)cccc1O` showed a TGI of 31 µM.
Still for that read-out and setting: the value for `CN(C(=O)C12C3C4C1C1C2C3C41C(=O)C(C)(C)C)C(C)(C)C` (stereo not drawn) was more than 100 µM; that for `Cc1cc2c(cc1C)[n+](=O)c(C(=O)CC(=O)C(=O)Nc1c(C(C)C)cccc1C(C)C)c(C)n2[O-]` was more than 100 µM; that for `COc1ccc2cc1Oc1ccc(cc1)CC1c3cc(c(OC)cc3CCN1C)Oc1c3c(cc4c1C(C2)N(C)CC4)OCO3` (stereo not drawn) was 25.8 µM.
On the same count and under the same terms, the value for `COc1ccc(OC)c(NC(=O)C(=O)C(C(C)=O)c2nc3ccc(Cl)cc3[nH]c2=O)c1` (stereo not drawn) was more than 50 µM; that for `N#CC(C(=N/O)/C(=N/O)C(C#N)c1ccc(Cl)cc1)c1ccc(Cl)cc1` (stereo not drawn) was more than 100 µM.

The next assay relates to UO-31 renal. Put plainly: NCI-60 cell line screen, 48 h.
Consider `CC1(Cl)C(=O)NC(=O)N(C2CC(N=[N+]=[N-])C(CO)O2)C1N=[N+]=[N-]` (stereo not drawn), for which the TGI was more than 100 µM.
`COc1ccc2ccc3c(c2c1)CN1CCc2cc(OC)c(OC)cc2C1C3` (stereo not drawn) had a TGI of more than 100 µM.
Still for that read-out and setting: the value for `OCCC1(O)CCC(O)CC1` (stereo not drawn) was more than 100 µM; that for `CCCCNC1=C(C(=O)OCC)C(=O)CO1` was more than 100 µM.
Regarding `CC(C)CC(=O)[O-].CC(C)CC(=O)[O-].N.N.N.N.[Co+3].[O-][Cl+3]([O-])([O-])[O-]`, the GI50 was 84.7 µM and > 100 µM; the TGI is more than 100 µM.
The molecule `COc1cc(C2c3cc4c(cc3C(NCC(O)CO)C3COC(=O)[C@H]23)OCO4)cc(OC)c1OC` (stereo partly drawn) registered a TGI of more than 100 µM.
Take `CC[CH2][Pb]([CH2]CC)([CH2]CC)[O]C(=O)C(F)(F)F`: the GI50 was 0.141 µM and the TGI was determined as 0.409 µM.
Molecule `CCCCN(CCCC)C(=O)C(=O)C(C#N)c1ccc(C)cc1` (stereo not drawn) yielded a TGI of more than 100 µM.
The same measure, in the same setting: the value for `Cc1ccc(S(=O)(=O)C(CC(=O)N2CCCC2)C(=O)c2ccccc2)cc1` (stereo not drawn) was more than 100 µM.
Consider `CC1(C)CC(/C=C2/OC(=O)c3ccccc32)=C(C#N)C(=O)O1`, for which the TGI is more than 100 µM.
In turn, `Cc1nc2c(nc1Cl)nc(Oc1ccc(Cl)cc1)c1ccccc12` showed a TGI of 73.7 µM.
For `CC(=O)Nc1ccccc1Sc1ccccc1`, the TGI was more than 100 µM.
On the same count and under the same terms, in the case of `COC(=O)C[C@H]1CCC2(OCCO2)[C@]1(C)C(=O)OC` it was more than 100 µM.
Turning to `O=C(CN1CCOCC1)Nc1ccc(Cn2nnc3c2C(=O)c2nnn(Cc4ccc(NC(=O)CN5CCOCC5)cc4)c2C3=O)cc1`, the GI50 was 26 µM and the TGI was more than 100 µM.
In turn, `CCCCCCCCCC[C@@H](O)[C@@H]1CC[C@H]([C@H]2CC[C@@H]([C@@H](O)CCCCCCCCCC[C@H]3CC(CC(C)=O)C(=O)O3)O2)O1` (stereo partly drawn) returned a TGI of 16.5 µM.
Molecule `CCOc1ccc2c(c1)[n+]([O-])c(S(=O)(=O)c1ccc(C)cc1)c(N)[n+]2[O-]` came in with a TGI of more than 100 µM.
On the same count and under the same terms, the value for `CC12CC[C@@H](C(C)(C)O)C1[C@@H](O)CC1(C)C2CCC2[C@@]3(C)CC[C@H](O)C(C)(C)C3C(O)C[C@]21C` (stereo partly drawn) was 40 µM; that for `CCOC(=O)NC(=O)c1cn(C2OC(COC(=O)CCCCCCCCC(=O)OCC3OC(n4cc(C(=O)NC(=O)OCC)c(=O)[nH]c4=O)C(O)C3O)C(O)C2O)c(=O)[nH]c1=O` (stereo not drawn) was more than 100 µM.
On the same count and under the same terms, the value for `Cc1ccc(C)c(NC(=O)CC/C(=N\NC(=O)C(=O)NN)C(C)C(=O)c2ccc(O)cc2)c1` (stereo not drawn) was more than 100 µM.
For `N=C1CSC2=NC3=C(CCC/C3=C\c3ccccc3)C(c3ccccc3)N12` (stereo not drawn), the TGI is 27.4 µM.
The molecule `COc1ccc(CNc2cc(OC)c(OC)c(OC)c2)cc1` came in with a TGI of more than 94.6 µM.
Molecule `COc1ccccc1C1C(C(=O)Nc2ccccc2)=C(C)NC(C)=C1C(=O)Nc1ccccc1` showed a TGI of more than 100 µM.
Turning to `COc1cccc(-c2cc(=O)c3cc(N(C)C)ccc3[nH]2)c1`, the GI50 is 0.0642 µM and 0.0126 µM and 0.0132 µM; the TGI is > 100 µM and 78.1 µM.
In turn, `CCCCCCCCCCCC(=O)CC(=O)c1c(O)cccc1O` gave a TGI of 29.3 µM.
`CN(C(=O)C12C3C4C1C1C2C3C41C(=O)C(C)(C)C)C(C)(C)C` (stereo not drawn) came in with a TGI of more than 100 µM.
Still for that read-out and setting: in the case of `Cc1cc2c(cc1C)[n+](=O)c(C(=O)CC(=O)C(=O)Nc1c(C(C)C)cccc1C(C)C)c(C)n2[O-]` it was more than 100 µM; in that of `COc1ccc(OC)c(NC(=O)C(=O)C(C(C)=O)c2nc3ccc(Cl)cc3[nH]c2=O)c1` (stereo not drawn), more than 50 µM; in that of `N#CC(C(=N/O)/C(=N/O)C(C#N)c1ccc(Cl)cc1)c1ccc(Cl)cc1` (stereo not drawn), more than 100 µM.
